One series deals with E. coli expressing NDM-1. The series is classed as cell-based. The following applies: Ins = insoluble.
The next series has as its target NDM-1 (Klebsiella pneumoniae, UniProt C7C422). The format is biochemical.
The nature of series [1]: Solubility observed in assay media. The format is physicochemical.
Another series deals with E. coli NDM-1/XL-1B. In words: Accumulation assay in bacteria (LC-MS). The series is classed as cell-based. The following applies: 50 μM compound, 10 min at 37° C.; tetracycline positive, clindamycin negative control. The procedure: Briefly, the overnight culture of E. coli NDM-1/XL-1B was inoculated into fresh Luria Bertani (LB) broth (1:100 v/v) and incubated at 37° C. with shaking to an optical density (OD600) of 0.55-0.60. The bacteria were pelleted by centrifugation and washed with 1× phosphate-buffered saline (PBS) before being re-suspended in PBS (28 times concentrated). The colony-forming units (CFUs) were determined by a calibration curve. Re-suspended cells were aliquoted into 1.5 mL Eppendorf tubes and recovered at 37° C. for 5 min. The compounds and controls were added with a final concentration of 50 μM. The mixtures were incubated at 37° C. for 10 min and the OD600 values were recorded to note the growth changes. To collect the cell pellets, 800 μL bacteria-compound mixtures were layered onto 700 μL silicone oil (9:1 v/v, AR20/Sigma High Temperature, pre-cooled at −80° C.) and bacteria were pelleted through the silicone oil by centrifugation. Cell pellets were re-suspended in 200 μL H2O and lysed using three freeze-thaw cycles of 3 min in liquid nitrogen followed by 3 min in a 65° C. water bath. Supernatants were collected after centrifuging and the cell debris was re-suspended in 100 μL methanol. The mixtures from cell debris were then centrifuged, and the methanol supernatants were combined with the supernatants from the last step before LC-MS analysis.
Two NL of supernatant was injected into a Thermo TSQ Quantis MS coupled with a Thermo Vanish UHPLC for analysis. The Phenomenex Luna C18 column (1.0 mm×50 mm, 1.7 μm) was used for resolving tested compounds with the column temperature being kept constant at 40° C. […] The compound concentrations in the samples were calculated based on their corresponding standard curves. […]
This could be partially due to the low accumulation of compounds into the periplasm and/or due to modest in vitro inhibition potency (Ki). To discern between the possibilities, the accumulation of inhibitors into bacteria was quantified using mass spectrometry. Compounds were pre-incubated with E. coli inoculum before cells were washed, lysed, and analyzed via mass spectrometry. […]

In a further series the test system is A. baumanii. In words: MIC of PBP-3 screening hits against A. baumanii. The series is classed as cell-based. The following applies: inhibitor alone. As to the method:
(§1) Similarly to KPC-2 and NDM-1, PBP-3 was screened against the β-lactamase-focused library and several hits were identified from qDOS38_2 and qDOS38_4 (Table 7). Since PBP-3 is not a β-lactamase enzyme, the inhibition assay cannot be used to determine the biochemical potency of inhibitor against PBP-3. Instead, in vivo potency was determined directly against E. coli and A. baumanii. Since all bacteria express PBP-3 naturally, other modifications to wild-type bacteria were not necessary.
(§2) Unlike β-lactamase inhibitor MIC determinations, which measure the synergy between inhibitor and antibiotic, PBP-3 inhibitor MIC determination only measures a single dimension concentration gradient of the inhibitor.

For the next series, the system named is E. coli. The series is described as follows: MIC of PBP-3 screening hits against E. coli. The series is classed as cell-based. The settings on record: for MIC: Escherichia coli, inhibitor alone, read-out: E. coli minimum inhibitory concentration (MIC). As to the method:
as §1, §2

Series [2] has as its target T1, KPC-2 (Klebsiella pneumoniae, UniProt Q9F663). In words: KPC-2 enzyme inhibition (Ki). The format is biochemical. The source says: Several hits were identified from the qDOS38_1 library against the KPC-2 enzyme. All compounds were synthesized without linker C1a. Among the hit compounds, CDD-2312 had the highest enrichment score of 5.9 but a lower count number of 115 compared to other libraries screened at the same time.

Series [3] concerns the target T1, KPC-2. In words: DNA-encoded library affinity selection against KPC-2. The format is binding. The following applies: qDOS38_1 library, on-DNA.

Entries after “also recorded” stand apart in the source; their conditions may differ. Where two headings read alike, the source gives them in different places.

In general, Ki refers to a dissociation constant, usually derived from enzyme kinetics or from competition with a known ligand. High values mean a looser hold on the target, low ones a stronger hold on the target.

Chain of NDM-1 (C7C422 whole entry, looked up, species assumed): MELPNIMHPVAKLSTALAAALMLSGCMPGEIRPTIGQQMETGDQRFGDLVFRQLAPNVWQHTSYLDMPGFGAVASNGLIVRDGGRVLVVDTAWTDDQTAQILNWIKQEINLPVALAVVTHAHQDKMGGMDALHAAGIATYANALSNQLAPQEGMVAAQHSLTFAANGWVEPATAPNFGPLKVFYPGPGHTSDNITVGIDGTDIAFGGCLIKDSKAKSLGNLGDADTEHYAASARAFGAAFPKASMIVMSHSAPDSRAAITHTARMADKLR
T1 sequence (Q9F663 whole entry, looked up, species assumed): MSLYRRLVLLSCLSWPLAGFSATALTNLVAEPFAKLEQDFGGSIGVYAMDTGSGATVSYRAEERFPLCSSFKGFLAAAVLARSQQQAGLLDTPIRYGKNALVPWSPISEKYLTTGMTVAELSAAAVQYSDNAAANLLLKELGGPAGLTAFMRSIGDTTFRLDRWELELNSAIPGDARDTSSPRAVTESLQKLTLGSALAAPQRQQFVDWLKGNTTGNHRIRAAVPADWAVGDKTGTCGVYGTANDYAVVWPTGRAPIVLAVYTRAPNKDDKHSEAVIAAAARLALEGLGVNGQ

Regarding `Cc1cc(CNc2cccc(CN)c2)cc(-c2ccc(C(=O)O)c(O)c2)c1` [CDD-2997, 3′-(((3-(aminomethyl)phenyl)amino)methyl)-3-hydroxy-5′-methyl-[1,1′-biphenyl]-4-carboxylic acid], the “Imipenem MIC (μg/mL)” value in the series on E. coli expressing NDM-1 ([inhibitor] 64 μg/mL) and in the series on E. coli expressing NDM-1 ([inhibitor] 128 μg/mL) was “Ins” throughout. The compound also came in with an inhibition constant Ki at NDM-1 of 530 ± 370 nM. For the same compound, the “solubility in aqueous solution” value in series [1] (MIC medium, above 64 μg/mL) was “low solubility in aqueous solution”. The solubility in buffer result in series [1] (at the accumulation assay concentration (50 μM)) is recorded as “low solubility in buffer”.
Turning to `CNCc1cccc(NCc2ccc(-c3ccc(C(=O)O)c(O)c3)o2)c1` [CDD-2376, 2-hydroxy-4-(5-(((3-((methylamino)methyl)phenyl)amino)methyl)furan-2-yl)benzoic acid], the accumulation in bacteria entry in the series with E. coli NDM-1/XL-1B is “lowest amount of accumulation; also recorded: lowest of all three compounds tested and comparable to that of the negative control”.
Turning to `NCc1cccc(NCc2cccc(-c3ccc(C(=O)O)c(O)c3)c2)c1` [CDD-2616, 3′-(((3-(aminomethyl)phenyl)amino)methyl)-3-hydroxy-[1,1′-biphenyl]-4-carboxylic acid], at NDM-1, the inhibition constant Ki was 900 ± 440 nM and the “NDM-1 Ki (μM)” value is listed as “sub-micromolar inhibition potency”. The accumulation in bacteria entry in the series with E. coli NDM-1/XL-1B was “comparable to that of the positive control”.
Take `NC(Cc1ccc(O)c(O)c1)C(=O)NCCc1ccccc1` (centres unmarked) [CDD-2507, 2-amino-3-(3,4-dihydroxyphenyl)-N-phenethylpropanamide]: the “effect against A. baumanii” value with A. baumanii was “Neither of the compounds had any significant effect”. Also, the “growth of bacteria below the MIC” value in the series with E. coli (16 μg/mL, E. coli) is “slower growth of bacteria”. The MIC in the series with E. coli is 128 µg/mL.
On to `COc1cc(-c2cnc(NCC(=O)O)nc2)cc(C=O)c1OCC(=O)N(C)C` [CDD-2312, (5-(4-(2-(dimethylamino)-2-oxoethoxy)-3-formyl-5-methoxyphenyl)pyrimidin-2-yl)glycine], for which, at KPC-2 [2], the inhibitory constant (Ki) stood at 657000 ± 123000 nM. For the same compound, the enrichment score on KPC-2 [3] is on record as 5.9.
As for `Nc1cccc(NCc2ccc(-c3cncc(C(=O)O)c3)cc2)c1` [CDD-2396, 5-(4-(((3-aminophenyl)amino)methyl)phenyl)nicotinic acid], in the series with A. baumanii, the “effect against A. baumanii” value is on record as “Neither of the compounds had any significant effect”. Further, the MIC in the series with E. coli worked out at 256 µg/mL.
Take `NCc1cccc(NCc2cccc(-c3ccc(C(=O)O)c(O)c3)n2)c1` [CDD-2653, 4-(6-(((3-(aminomethyl)phenyl)amino)methyl)pyridin-2-yl)-2-hydroxybenzoic acid]: the accumulation in bacteria result with E. coli NDM-1/XL-1B is recorded as “much higher”.

(Values after US20250325542A1, “INHIBITORS OF ANTIMOCROBIAL RESISTANCE AND METHOS USING SAME” (Baylor College of Medicine, priority 2022, published 2025).)
